Results from patent US9932637B2, “Genetic polymorphisms associated with cardiovascular disorders and drug response, methods of detection and uses thereof” (CELERA CORPORATION, priority 2003, dated 2018).

Tested on: patients with prior myocardial infarction (CARE study)
Experiment: CARE: association of SNPs with pravastatin treatment in cardiovascular events prevention (logistic regression, odds ratio pravastatin vs placebo by genotype; Table 8)
Type: in vivo, human
Details: for Prava vs. Placebo Odds Ratio, 1 Rare Alleles / Prava vs. Placebo Odds Ratio, 2 Rare Alleles / Non-fatal MI (def & prob), n/total (%) / Fatal/Non-fatal MI (def & prob), n/total (%) / Fatal CHD/Definite Non-fatal MI, n/total (%) / Total Coronary Heart Disease Events, n/total (%) / Fatal/Non-fatal Atherosclerotic CV Disease, n/total (%) / Hosp. for Cardiovascular Disease, n/total (%) / Total Cardiovascular Disease Events, n/total (%) / Prava vs. Placebo Odds Ratio, 0 Rare Alleles: All Patients; for Non-fatal MI (def & prob), n/total (%) / Fatal/Non-fatal MI (def & prob), n/total (%) / Fatal CHD/Definite Non-fatal MI, n/total (%) / Total Coronary Heart Disease Events, n/total (%) / Fatal/Non-fatal Atherosclerotic CV Disease, n/total (%) / Hosp. for Cardiovascular Disease, n/total (%) / Total Cardiovascular Disease Events, n/total (%): Prava
From the text: In order to identify genetic markers associated with acute coronary events (e.g. MI, stroke, unstable angina, congestive heart failure, etc.) or response to statin treatment for the prevention of coronary events, samples from the Cholesterol and Recurrent Events (CARE) study (a randomized multicentral double-blinded trial on secondary prevention of acute coronary events with pravastatin) (Sacks et al., 1991, Am. J. Cardiol. 68: 1436-1446) were genotyped. A well-documented myocardial infarction (MI) was one of the enrollment criteria for entry into the CARE study. Patients were enrolled in the CARE trial from 80 participating study centers. […] Patients were randomized to receive either 40 mg of pravastatin once daily or a matching placebo. The primary endpoint of the trial was death from coronary heart disease and the median duration of follow-up was 5.0 years (range, 4.0 to 6.2 years). […] Secondary endpoints of other related cardiovascular or metabolic disease events, and changes in clinical variables were also recorded in pravastatin-treated and placebo groups. All individuals included in the study had signed a written informed consent form and the study protocol was approved by the respective Institutional Review Boards (IRBs).
For genotyping SNPs in CARE patient samples, DNA was extracted from blood samples using conventional DNA extraction methods such as the QIA-amp kit from Qiagen. Genotypes were obtained on an ABI PRISM® 7900HT Sequence Detection PCR system (Applied Biosystems, Foster City, Calif.) by kinetic allele-specific PCR, similar to the method described by Germer et al. (Germer S., Holland M. J., Higuchi R. 2000, Genome Res. 10: 258-266).
Statistical analysis for association of SNPs with pravastatin treatment in cardiovascular events prevention (Table 8) was carried out using an overall logistic regression model that included an intercept, a parameter for the effect of a genotype containing two rare alleles versus a genotype containing no rare alleles, a parameter for the effect of a genotype containing one rare allele versus a genotype containing no rare alleles, a parameter for the effect of use of pravastatin versus the use of placebo, and parameters for the interaction effects between SNP genotypes and pravastatin use. The test of the overall model is a chi-square test with two degrees of freedom for analyses containing all three genotypes, and one degree of freedom for analyses containing two genotypes.
Effect sizes were estimated through odds ratios (pravastatin group versus placebo) for carriers of each genotype (groups of 0, 1, and 2 minor allele carriers). The effect was considered to be significant if p-value for testing whether any of the interactions between SNP genotypes and pravastatin use were <0.05. […] Odds ratios less than one indicate that the specific SNP allele has a protective effect and odds ratios greater than one indicate that the specific SNP allele has an adverse effect.

[1] = IL1A hCV9546471, Total Mortality
[2] = IL1RN hCV8737990, 2 Rare Alleles, n/total 20/121
[3] = IL1RN hCV8737990, Fatal CHD/Definite Non-fatal MI
[4] = IL1RN hCV8737990, Fatal/Non-fatal Atherosclerotic CV Disease
[5] = IL1RN hCV8737990, Fatal/Non-fatal MI (def & prob)
[6] = IL1RN hCV8737990, Hosp. for Cardiovascular Disease
[7] = IL1RN hCV8737990, Non-fatal MI (def & prob)
[8] = IL1RN hCV8737990, Total Cardiovascular Disease Events
[9] = IL1RN hCV8737990, Total Coronary Heart Disease Events
[10] = IL6ST hCV16170435, 2 Rare Alleles, n/total 19/37
[11] = IL6ST hCV16170435, Hosp. for Cardiovascular Disease
[12] = IL6ST hCV16170435, Total Cardiovascular Disease Events
[13] = IL9 hCV3275199, All Patients, 0 Rare Alleles, Prava arm

CC[C@H](C)C(=O)O[C@H]1C[C@H](O)C=C2C=C[C@H](C)[C@H](CC[C@@H](O)C[C@@H](O)CC(=O)O)[C@H]21 [pravastatin]
Prava vs. Placebo Odds Ratio, 1 Rare Alleles [1]: 0.60 | Prava vs. Placebo Odds Ratio, 2 Rare Alleles [1]: 0.29 | Non-fatal MI (def & prob), n/total (%) (IL1RN hCV8737990, 0 Rare Alleles, n/total 68/809): (8.4%) | Fatal/Non-fatal MI (def & prob), n/total (%) (IL1RN hCV8737990, 0 Rare Alleles, n/total 76/809): (9.4%) | Fatal CHD/Definite Non-fatal MI, n/total (%) (IL1RN hCV8737990, 0 Rare Alleles, n/total 80/809): (9.9%) | Total Coronary Heart Disease Events, n/total (%) (IL1RN hCV8737990, 0 Rare Alleles, n/total 228/809): (28.2%) | Fatal/Non-fatal Atherosclerotic CV Disease, n/total (%) (IL1RN hCV8737990, 0 Rare Alleles, n/total 260/809): (32.1%) | Hosp. for Cardiovascular Disease, n/total (%) (IL1RN hCV8737990, 0 Rare Alleles, n/total 315/809): (38.9%) | Total Cardiovascular Disease Events, n/total (%) (IL1RN hCV8737990, 0 Rare Alleles, n/total 325/809): (40.2%) | Fatal CHD/Definite Non-fatal MI, n/total (%) (IL1RN hCV8737990, 1 Rare Allele, n/total 44/585): (7.5%) | Non-fatal MI (def & prob), n/total (%) (IL1RN hCV8737990, 1 Rare Allele, n/total 45/585): (7.7%) | Fatal/Non-fatal MI (def & prob), n/total (%) (IL1RN hCV8737990, 1 Rare Allele, n/total 49/585): (8.4%) | Total Coronary Heart Disease Events, n/total (%) (IL1RN hCV8737990, 1 Rare Allele, n/total 167/585): (28.5%) | Fatal/Non-fatal Atherosclerotic CV Disease, n/total (%) (IL1RN hCV8737990, 1 Rare Allele, n/total 193/585): (33.0%) | Hosp. for Cardiovascular Disease, n/total (%) (IL1RN hCV8737990, 1 Rare Allele, n/total 232/585): (39.7%) | Total Cardiovascular Disease Events, n/total (%) (IL1RN hCV8737990, 1 Rare Allele, n/total 239/585): (40.9%) | Fatal CHD/Definite Non-fatal MI, n/total (%) (IL1RN hCV8737990, 2 Rare Alleles, n/total 15/121): (12.4%) | Fatal/Non-fatal MI (def & prob), n/total (%) [2]: (16.5%) | Non-fatal MI (def & prob), n/total (%) [2]: (16.5%) | Total Coronary Heart Disease Events, n/total (%) (IL1RN hCV8737990, 2 Rare Alleles, n/total 45/121): (37.2%) | Fatal/Non-fatal Atherosclerotic CV Disease, n/total (%) (IL1RN hCV8737990, 2 Rare Alleles, n/total 51/121): (42.1%) | Hosp. for Cardiovascular Disease, n/total (%) (IL1RN hCV8737990, 2 Rare Alleles, n/total 60/121): (49.6%) | Total Cardiovascular Disease Events, n/total (%) (IL1RN hCV8737990, 2 Rare Alleles, n/total 61/121): (50.4%) | Prava vs. Placebo Odds Ratio, 0 Rare Alleles [3]: 0.75 | Prava vs. Placebo Odds Ratio, 1 Rare Alleles [3]: 0.52 | Prava vs. Placebo Odds Ratio, 2 Rare Alleles [3]: 1.89 | Prava vs. Placebo Odds Ratio, 0 Rare Alleles [4]: 0.75 | Prava vs. Placebo Odds Ratio, 1 Rare Alleles [4]: 0.66 | Prava vs. Placebo Odds Ratio, 2 Rare Alleles [4]: 1.67 | Prava vs. Placebo Odds Ratio, 0 Rare Alleles [5]: 0.66 | Prava vs. Placebo Odds Ratio, 1 Rare Alleles [5]: 0.51 | Prava vs. Placebo Odds Ratio, 2 Rare Alleles [5]: 1.70 | Prava vs. Placebo Odds Ratio, 0 Rare Alleles [6]: 0.77 | Prava vs. Placebo Odds Ratio, 1 Rare Alleles [6]: 0.64 | Prava vs. Placebo Odds Ratio, 2 Rare Alleles [6]: 1.37 | Prava vs. Placebo Odds Ratio, 0 Rare Alleles [7]: 0.68 | Prava vs. Placebo Odds Ratio, 1 Rare Alleles [7]: 0.52 | Prava vs. Placebo Odds Ratio, 2 Rare Alleles [7]: 1.70 | Prava vs. Placebo Odds Ratio, 0 Rare Alleles [8]: 0.75 | Prava vs. Placebo Odds Ratio, 1 Rare Alleles [8]: 0.65 | Prava vs. Placebo Odds Ratio, 2 Rare Alleles [8]: 1.37 | Prava vs. Placebo Odds Ratio, 0 Rare Alleles [9]: 0.74 | Prava vs. Placebo Odds Ratio, 1 Rare Alleles [9]: 0.67 | Prava vs. Placebo Odds Ratio, 2 Rare Alleles [9]: 1.84 | Hosp. for Cardiovascular Disease, n/total (%) (IL6ST hCV16170435, 0 Rare Alleles, n/total 450/1131): (39.8%) | Total Cardiovascular Disease Events, n/total (%) (IL6ST hCV16170435, 0 Rare Alleles, n/total 465/1131): (41.1%) | Hosp. for Cardiovascular Disease, n/total (%) (IL6ST hCV16170435, 1 Rare Allele, n/total 139/340): (40.9%) | Total Cardiovascular Disease Events, n/total (%) (IL6ST hCV16170435, 1 Rare Allele, n/total 142/340): (41.8%) | Hosp. for Cardiovascular Disease, n/total (%) [10]: (51.4%) | Total Cardiovascular Disease Events, n/total (%) [10]: (51.4%) | Prava vs. Placebo Odds Ratio, 0 Rare Alleles [11]: 0.75 | Prava vs. Placebo Odds Ratio, 1 Rare Alleles [11]: 0.72 | Prava vs. Placebo Odds Ratio, 2 Rare Alleles [11]: 2.49 | Prava vs. Placebo Odds Ratio, 0 Rare Alleles [12]: 0.75 | Prava vs. Placebo Odds Ratio, 1 Rare Alleles [12]: 0.69 | Prava vs. Placebo Odds Ratio, 2 Rare Alleles [12]: 2.49 | Fatal/Nonfatal MI (def & prob), n/total (%) [13]: (10.8%) | MI (Fatal/Nonfatal), n/total (%) [13]: (11.1%)
